Legend:
Format in all cases: in vivo, mouse
[1] = test system: sEH; assay: Western blot of sEH in brain regions after maternal glyphosate exposure
Excerpt: Collection of blood and brain samples and oxylipin analysis. Water or 0.095% glyphosate was given to pregnant mice from E5 to P21, as described above. The male offspring were separated from their mothers at weaning (P21). At juvenile (P28) stage, mice were deeply anesthetized with isoflurane and plasma was collected. Subsequently, brains were removed from the skulls. For Western blot analysis, brain regions such as prefrontal cortex (PFC), hippocampus, and striatum, were dissected from brain on ice. The samples were stored at −80° C. before assay. For oxylipin analysis, plasma was collected after isoflurane anesthesia at juvenile (P28) stage. Subsequently, PFC, hippocampus, and striatum were dissected from brain on ice, and the samples were stored at −80° C. before assay. […]
Western blot analysis. […] 50 μg of protein were measured using the DC protein assay kit (Bio-Rad), and incubated for 5 min at 95° C., with an equal volume of 125 mM Tris-HCl, pH6.8, 20% glycerol, 0.1% bromophenol blue, 10% β-mercaptoethanol, 4% sodium dodecyl sulfate, and subjected to sodium dodecyl sulfate polyacrylamide gel electrophoresis, using 7.5% or AnyKD mini-gels (Mini-PROTEAN® TGX™ Precast Gel; Bio-Rad, CA, USA). […] After final three washes with TBST, bands were detected using enhanced chemiluminescence (ECL) prime Western Blotting Detection system (GE Healthcare Bioscience). […]

[2] = test system: parvalbumin (PV); assay: PV-immunohistochemistry in mPFC after maternal glyphosate exposure; settings: juvenile offspring of maternal glyphosate exposure vs water treated group
Protocol: PV-immunohistochemistry. Immunohistochemistry of PV was performed as reported previously (7,13,16,17). Mice were anesthetized with 5% isoflurane and sodium pentobarbital (50 mg/kg), and perfused transcardially with 10 mL of saline, followed by 30 mL of ice-cold 4% paraformaldehyde in 0.1M phosphate buffer (pH 7.4). Brains were removed from the skulls and post fixed overnight at 4° C. in the same fixative. For the immunohistochemical analysis, 50 μm-thick serial, coronal sections of brain tissue were cut in ice-cold 0.01M phosphate buffered saline (pH 7.4) using a vibrating blade microtome (VT1000s, Leica Microsystems, Tokyo, Japan). Mounted on gelatinized slides brain sections were washed by PBS for three times and then blocked in PBS containing 0.3% Triton X-100 (PBST) and 3% normal serum for 1 h at room temperature. The samples were then incubated for 24 h at 4° C. with […] polyclonal anti-parvalbumin (PV) antibody (1:100, abcam, ab11427) in PBST with 1% normal serum. After that the sections were washed three times in PBS and then incubated for 2 h in room temperature with Alexa Fluor 488 Polyclonal Antibody (1:1000, Invitrogen, A11094). […] The PV-immunofluorescent-positive cells in the inflalimbic (IL) and prelimbic (PrL) regions (0.05 mm^2) of mPFC was analyzed using a fluorescence microscope with a CCD camera (Olympus IX70, Tokyo, Japan) and the SCION IMAGE software package. […]

[3] = test system: ddY mice; assay: Short-chain fatty acids in fecal samples after maternal glyphosate exposure; settings: offspring after maternal glyphosate exposure
Protocol: Measurement of short-chain fatty acids—acetic acid, propionic acid, butyric acid, and valeric acid—in fecal samples was performed by the TechnoSuruga Laboratory, Co., Ltd. (Shizuoka, Japan).

In the case of `O=C(O)CNCP(=O)(O)O` [glyphosate], the “protein levels of sEH in the PFC, hippocampus, and striatum” value ([1]; juvenile offspring (P28) after maternal glyphosate exposure vs water) is reported as “significantly higher”, the “protein levels of sEH in the PFC and striatum of mothers” value ([1]; mothers treated with glyphosate vs water-treated mice) is reported as “significantly higher” and the “PV-immunoreactivity in the prelimbic (PrL) of medial PFC” value [2] is reported as “significantly lower”. The “levels of acetic acid in the fecal samples” value [3] was “significantly increased” and the “propionic acid, butyric acid, and valeric acid in fecal samples” value [3] was “not different”.

— patent publication US12357598B2, “Treatment of neurodevelopmental disorders” (THE REGENTS OF THE UNIVERSITY OF CALIFORNIA, priority 2018, dated 2025)
